Laboratory results as given in PubChem BioAssay AID256 (DTP/NCI, 2004).
Several values for one entry are separate records, joined by “and”; a condition that tells them apart may be missing. Equal values may be shown once. Toxic doses and inconclusive results are not listed. Rule for the calls: active = survival T/C of 150% or more; inactive = T/C below 125% in these data. Non-standard residues stand in square brackets, D forms with d. Residues, ends and D or L forms follow the SMILES beside them. *: point of attachment. Cbz = O=C(OCc1ccccc1)*; Nva = CCC[CH](N)C(=O)O

System: CD2F1 mice, L1210 leukemia ip, survival T/C
Assay: NCI In Vivo Anticancer Drug Screen. Data for tumor model L1210 Leukemia (intraperitoneal) in CD2F1 (CDF1) mice
Details: higher = longer survival
How it was run: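 Mice carrying a transplanted tumor received test compound or vehicle alone. The value is the measurement in the treated group divided by that in the vehicle-treated control group.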

[1] = endpoint: mean survival time, dose: 100.0 mg/kg/injection, schedule: Q01DX001 (ip), vehicle: saline with Tween-80
[2] = endpoint: mean survival time, dose: 200.0 mg/kg/injection, schedule: Q01DX001 (ip), vehicle: saline with Tween-80
[3] = endpoint: mean survival time, dose: 25.0 mg/kg/injection, schedule: Q04DX003 (ip), vehicle: saline with Tween-80
[4] = endpoint: mean survival time, dose: 50.0 mg/kg/injection, schedule: Q04DX003 (ip), vehicle: saline with Tween-80
[5] = endpoint: mean survival time, dose: 100.0 mg/kg/injection, schedule: Q04DX002 (ip), vehicle: saline with Tween-80
[6] = endpoint: mean survival time, dose: 100.0 mg/kg/injection, schedule: Q01DX009 (ip), vehicle: saline with Tween-80
[7] = endpoint: mean survival time, dose: 100.0 mg/kg/injection, schedule: Q04DX003 (ip), vehicle: saline with Tween-80
[8] = endpoint: mean survival time, dose: 200.0 mg/kg/injection, schedule: Q01DX009 (ip), vehicle: saline with Tween-80
[9] = endpoint: mean survival time, dose: 200.0 mg/kg/injection, schedule: Q04DX003 (ip), vehicle: saline with Tween-80
[10] = endpoint: mean survival time, dose: 400.0 mg/kg/injection, schedule: Q01DX009 (ip), vehicle: saline with Tween-80
[11] = endpoint: mean survival time, dose: 400.0 mg/kg/injection, schedule: Q04DX003 (ip), vehicle: saline with Tween-80
[12] = endpoint: mean survival time, dose: 25.0 mg/kg/injection, schedule: Q01DX009 (ip), vehicle: saline with Tween-80
[13] = endpoint: mean survival time, dose: 50.0 mg/kg/injection, schedule: Q01DX009 (ip), vehicle: saline with Tween-80
[14] = endpoint: mean survival time, dose: 100.0 mg/kg/injection, schedule: Q01DX001 (ip), vehicle: saline
[15] = endpoint: mean survival time, dose: 200.0 mg/kg/injection, schedule: Q01DX001 (ip), vehicle: saline
[16] = endpoint: mean survival time, dose: 400.0 mg/kg/injection, schedule: Q01DX001 (ip), vehicle: saline

Measured: T/C

C=C.O=C(O)/C=C\C(=O)O.[Mn]
inactive: endpoint: mean survival time, dose: 1.0 mg/kg/injection, schedule: Q01DX009 (ip), vehicle: saline with Tween-80 95 % of control | endpoint: mean survival time, dose: 1.0 mg/kg/injection, schedule: Q04DX003 (ip), vehicle: saline with Tween-80 97 % of control | endpoint: mean survival time, dose: 2.0 mg/kg/injection, schedule: Q01DX009 (ip), vehicle: saline with Tween-80 95 % of control | endpoint: mean survival time, dose: 2.0 mg/kg/injection, schedule: Q04DX003 (ip), vehicle: saline with Tween-80 95 % of control | endpoint: mean survival time, dose: 4.0 mg/kg/injection, schedule: Q04DX003 (ip), vehicle: saline with Tween-80 91 % of control

O=C(O)C1OC(Sc2ncnc3nc[nH]c23)C(O)C(O)C1O (configuration not stated)
inactive: endpoint: median survival time, dose: 25.0 mg/kg/injection, schedule: Q01DX005 (ip), vehicle: saline 98 % of control | endpoint: median survival time, dose: 50.0 mg/kg/injection, schedule: Q01DX005 (ip), vehicle: saline 108 % of control | endpoint: median survival time, dose: 100.0 mg/kg/injection, schedule: Q01DX005 (ip), vehicle: saline 109 % of control | endpoint: median survival time, dose: 200.0 mg/kg/injection, schedule: Q01DX005 (ip), vehicle: saline 120 % of control and 112 % of control | endpoint: median survival time, dose: 400.0 mg/kg/injection, schedule: Q01DX005 (ip), vehicle: saline 115 % of control

Nc1cc(N)nc(N)n1
inactive: [1] 103 % of control | [2] 105 % of control

O=C(NCC(S)c1ccc(Cl)cc1)C(F)(F)F (configuration not stated)
inactive: endpoint: mean survival time, dose: 12.5 mg/kg/injection, schedule: Q04DX003 (ip), vehicle: saline with Tween-80 96 % of control | [3] 90 % of control | [4] 96 % of control

CC(C)(CCC#N)C(=O)c1ccccc1
inactive: [5] 94 % of control | endpoint: mean survival time, dose: 200.0 mg/kg/injection, schedule: Q04DX002 (ip), vehicle: saline with Tween-80 102 % of control

O=C(c1ccccc1)C(C(c1ccc([N+](=O)[O-])cc1)N1CCOCC1)N1CCOCC1 (configuration not stated)
inactive: [6] 97 % of control | [7] 101 % of control | [8] 96 % of control | [9] 101 % of control | [10] 96 % of control | [11] 108 % of control

O=C1CC2OCCC3CN4CCC56c7ccccc7N1C5C2C3CC46 (configuration not stated)
inactive: endpoint: mean survival time, dose: 75.0 mg/kg/injection, schedule: Q01DX001 (ip), vehicle: saline 106 % of control | endpoint: mean survival time, dose: 150.0 mg/kg/injection, schedule: Q01DX001 (ip), vehicle: saline 101 % of control

O=C(Nc1cccc([N+](=O)[O-])c1)c1cc2ccccc2cc1O
inactive: endpoint: mean survival time, dose: 100.0 mg/kg/injection, schedule: Q01DX009 (ip), vehicle: saline 101 % of control | [7] 95 % of control | endpoint: mean survival time, dose: 200.0 mg/kg/injection, schedule: Q01DX009 (ip), vehicle: saline 97 % of control | [9] 95 % of control | endpoint: mean survival time, dose: 400.0 mg/kg/injection, schedule: Q01DX009 (ip), vehicle: saline 98 % of control | [11] 87 % of control

O=C(C[n+]1ccccc1Cc1ccccc1)c1ccccc1
inactive: [3] 93 % of control | [4] 96 % of control | [7] 101 % of control

Clc1cc2ccccc2c(Cl)n1
inactive: [1] 92 % of control | [2] 89 % of control

CCOC(=O)c1c(OC)cc2n(c1=O)Cc1cc3ccccc3nc1-2
inactive: [12] 98 % of control | [13] 98 % of control | [6] 101 % of control | [7] 90 % of control

COc1cccc2c1C(=O)c1c(O)c3c(c(O)c1C2=O)CC(O)(/C(C)=N/NC(=O)CCCC(=O)N/N=C(\C)C1(O)Cc2c(O)c4c(c(O)c2C(OC2CC(N)C(O)C(C)O2)C1)C(=O)c1c(OC)cccc1C4=O)CC3OC1CC(N)C(O)C(C)O1 (configuration not stated)
inactive: endpoint: mean survival time, dose: 0.2 mg/kg/injection, schedule: Q01DX009 (ip), vehicle: water 101 % of control | endpoint: mean survival time, dose: 0.39 mg/kg/injection, schedule: Q01DX009 (ip), vehicle: water 98 % of control | endpoint: mean survival time, dose: 0.78 mg/kg/injection, schedule: Q01DX009 (ip), vehicle: water 109 % of control | endpoint: mean survival time, dose: 1.56 mg/kg/injection, schedule: Q01DX009 (ip), vehicle: water 104 % of control | endpoint: mean survival time, dose: 3.13 mg/kg/injection, schedule: Q01DX009 (ip), vehicle: water 114 % of control

CCOC(=O)N1C(=O)c2ccccc2C1=O
inactive: [6] 93 % of control | [8] 93 % of control | [10] 100 % of control

CCCC(NC(=O)C(C)NC(=O)OCc1ccccc1)C(N)=O (stereo not drawn) (Cbz-Ala-[Nva]-NH2; configuration not given here)
inactive: [6] 90 % of control | [8] 92 % of control | [10] 92 % of control

Nc1n[nH]c(=O)[nH]1
active: endpoint: mean survival time, dose: 250.0 mg/kg/injection, schedule: Q03HX024 (ip), vehicle: saline 161 % of control
inactive: endpoint: mean survival time, dose: 31.3 mg/kg/injection, schedule: Q03HX024 (ip), vehicle: saline 106 % of control | endpoint: mean survival time, dose: 62.5 mg/kg/injection, schedule: Q03HX024 (ip), vehicle: saline 106 % of control | endpoint: mean survival time, dose: 125.0 mg/kg/injection, schedule: Q03HX024 (ip), vehicle: saline 109 % of control

OC12CC3C4CC(O1)C1C4CC3C12 (configuration not stated)
inactive: [14] 100 % of control | [15] 96 % of control | [16] 96 % of control

C=CCCCCCCCCC(=O)Nc1cc2c3c(c1)CCCN3CCC2
inactive: [13] 97 % of control | [6] 101 % of control | [7] 93 % of control

[B-][N+]1(C)CC[N+]([B-])(C)CC1 (configuration not stated)
inactive: endpoint: mean survival time, dose: 5.0 mg/kg/injection, schedule: Q01DX009 (ip), vehicle: saline with Tween-80 104 % of control | endpoint: mean survival time, dose: 5.0 mg/kg/injection, schedule: Q04DX003 (ip), vehicle: saline 103 % of control | endpoint: mean survival time, dose: 10.0 mg/kg/injection, schedule: Q01DX009 (ip), vehicle: saline with Tween-80 96 % of control | endpoint: mean survival time, dose: 10.0 mg/kg/injection, schedule: Q04DX003 (ip), vehicle: saline 98 % of control | endpoint: mean survival time, dose: 20.0 mg/kg/injection, schedule: Q04DX003 (ip), vehicle: saline 98 % of control

CC(C)OC(=O)Nc1ccc(Cl)cc1
inactive: [7] 97 % of control | [9] 97 % of control | [11] 100 % of control

CCC(CC)CN1CCSC1=S
inactive: [6] 101 % of control | [8] 101 % of control | [10] 96 % of control

COC(=O)C12OCC34C(CC5C(C)=C(O)C(=O)CC5(C)C3C(O)C1O)OC(=O)C(OC(=O)C=C(C)C)C24 (configuration not stated)
inactive: endpoint: mean survival time, dose: 125.0 micrograms/kg/injection, schedule: Q01DX009 (ip), vehicle: saline + alcohol 103 % of control | endpoint: mean survival time, dose: 250.0 micrograms/kg/injection, schedule: Q01DX009 (ip), vehicle: saline + alcohol 100 % of control | endpoint: mean survival time, dose: 500.0 micrograms/kg/injection, schedule: Q01DX009 (ip), vehicle: saline + alcohol 98 % of control | endpoint: mean survival time, dose: 1000.0 micrograms/kg/injection, schedule: Q01DX009 (ip), vehicle: saline + alcohol 104 % of control | endpoint: mean survival time, dose: 2000.0 micrograms/kg/injection, schedule: Q01DX009 (ip), vehicle: saline + alcohol 101 % of control | endpoint: mean survival time, dose: 4000.0 micrograms/kg/injection, schedule: Q01DX009 (ip), vehicle: saline + alcohol 115 % of control

O=C(/C=C/c1ccccn1)c1ccc(Cl)cc1
inactive: endpoint: mean survival time, dose: 100.0 mg/kg/injection, schedule: Q01DX001 (ip), vehicle: Klucel (hydroxypropylcellulose) (HPC) 97 % of control | endpoint: mean survival time, dose: 200.0 mg/kg/injection, schedule: Q01DX001 (ip), vehicle: Klucel (hydroxypropylcellulose) (HPC) 97 % of control | endpoint: mean survival time, dose: 400.0 mg/kg/injection, schedule: Q01DX001 (ip), vehicle: Klucel (hydroxypropylcellulose) (HPC) 105 % of control

O=C(O)/C=C/C(=O)Nc1ccccc1[N+](=O)[O-]
inactive: [13] 102 % of control | [6] 104 % of control | [8] 94 % of control

CC(=O)C(=O)Sc1ccccc1
inactive: endpoint: mean survival time, dose: 12.5 mg/kg/injection, schedule: Q04DX002 (ip), vehicle: Klucel (hydroxypropylcellulose) (HPC) 94 % of control | endpoint: mean survival time, dose: 25.0 mg/kg/injection, schedule: Q04DX002 (ip), vehicle: Klucel (hydroxypropylcellulose) (HPC) 105 % of control | endpoint: mean survival time, dose: 50.0 mg/kg/injection, schedule: Q04DX002 (ip), vehicle: Klucel (hydroxypropylcellulose) (HPC) 90 % of control

[Cl][Hg][CH2]CN1CCCCC1
inactive: endpoint: mean survival time, dose: 25.0 mg/kg/injection, schedule: Q04DX002 (ip), vehicle: saline with Tween-80 94 % of control | endpoint: mean survival time, dose: 50.0 mg/kg/injection, schedule: Q04DX002 (ip), vehicle: saline with Tween-80 94 % of control | [5] 94 % of control

C1CC[N-]CC1.[Cl][Au]([Cl])[Cl]
inactive: [12] 97 % of control | [13] 100 % of control | [7] 96 % of control

OC1C2CCN(CC2)C1CN1CC=C(c2ccccc2)CC1 (configuration not stated)
inactive: endpoint: mean survival time, dose: 100.0 mg/kg/injection, schedule: Q04DX003 (ip), vehicle: saline 100 % of control

O=C1OC(=O)C2CCCC1C2
inactive: [14] 105 % of control | [15] 105 % of control | [16] 100 % of control
